Literature values in PMC5742115, “Pharmacophore Modeling and in Silico/in Vitro Screening for Human Cytochrome P450 11B1 and Cytochrome P450 11B2 Inhibitors” (Frontiers in Chemistry, 2017).
Read-outs that look alike come from different tables or passages of the source.

Assays:
CYP11B2 = conditions: reported activity, supplementary Table 1, 2013, read-out: CYP11B2 IC50, cited from earlier work
CYP11B1 = conditions: reported activity, supplementary Table 1, 2013, read-out: CYP11B1 IC50, cited from earlier work
[1] = ref Pinto-Bazurco Mendieta et al.

Compound	IC50 (CYP11B2; ref Emmerich et al.) [nM]	IC50 (CYP11B1; ref Emmerich et al.) [nM]	IC50 (CYP11B2; [1]) [nM]	IC50 (CYP11B1; [1]) [nM]	other results
Oc1cncc(Cc2ccc(-c3ccccc3)nc2)c1 [CHEMBL2417615]	836	51	–	–	–
c1ccc(-c2cncc(Cc3ccc(-c4ccccc4)nc3)c2)cc1 [CHEMBL2417616]	0.5	1.3	–	–	–
CC(c1ccc(-c2ccccc2)nc1)n1ccnc1 (centres unmarked) [CHEMBL2417619]	200	33	–	–	–
CCC(c1ccc(-c2ccccc2)nc1)n1ccnc1 (centres unmarked) [CHEMBL2417620]	92	28	–	–	–
c1ccc(-c2ccc(C(C3CC3)n3ccnc3)cn2)cc1 (centres unmarked) [CHEMBL2417621]	25	21	–	–	–
c1ccc(-c2ccc(C(c3ccco3)n3ccnc3)cn2)cc1 (centres unmarked) [CHEMBL2417623]	74	69	–	–	–
CC(c1ccc(-c2ccsc2)nc1)n1ccnc1 (centres unmarked) [CHEMBL2417625]	151	21	–	–	–
c1cn(C(c2ccc(-c3ccsc3)nc2)C2CC2)cn1 (centres unmarked) [CHEMBL2417626]	31	11	–	–	–
CC(c1ccc(-c2cccc3ccccc23)nc1)n1ccnc1 (centres unmarked) [CHEMBL2417627]	273	60	–	–	–
c1ccc(-c2ncc(Cn3ccnc3)c3ccccc23)cc1 [CHEMBL2417632]	302	87	–	–	–
c1ccc(-c2ccc(Cc3cccnc3)cn2)cc1 [CHEMBL2417633]	322	32	–	–	–
c1ccc(-c2ccc(Cc3ccncc3)cn2)cc1 [CHEMBL2417634]	621	98	–	–	–
c1ccc(-c2ccc(Cc3cncc4ccccc34)cn2)cc1 [CHEMBL2417635]	23	6	–	–	–
Cc1ccncc1Cc1ccc(-c2ccccc2)nc1 [CHEMBL2417637]	19	8	–	–	–
Oc1ccc2ccc(-c3cccnc3)c(Cl)c2c1 [CHEMBL2420674]	–	–	26	235	–
COc1ccc2ccc(-c3cccnc3)c(F)c2c1 [CHEMBL2420675]	–	–	17	1610	–
Oc1ccc2ccc(-c3cccnc3)c(F)c2c1 [CHEMBL2420676]	–	–	30	1160	–

Compound	IC50 (CYP11B2; ref Emmerich et al.) [nM]	IC50 (CYP11B1; ref Emmerich et al.) [nM]	IC50 (CYP11B2; [1]) [nM]	IC50 (CYP11B1; [1]) [nM]	other results
COc1ccc2ccc(-c3cccnc3)c(Cl)c2c1F [CHEMBL2420677]	–	–	28	2940	–
Oc1ccc2ccc(-c3cccnc3)c(Cl)c2c1F [CHEMBL2420678]	–	–	25	224	–
COc1ccc2ccc(-c3cncc(F)c3)c(Cl)c2c1 [CHEMBL2420679]	–	–	38	1420	–
Oc1ccc2ccc(-c3cncc(F)c3)c(Cl)c2c1 [CHEMBL2420680]	–	–	33	450	–
COc1cncc(-c2ccc3ccc(OC)cc3c2Cl)c1 [CHEMBL2420681]	–	–	24	447	–
COc1cncc(-c2ccc3ccc(O)cc3c2Cl)c1 [CHEMBL2420682]	–	–	15	245	–
COc1ccc2ccc(-c3cncc(O)c3)c(Cl)c2c1 [CHEMBL2420683]	–	–	13	7100	–
Oc1cncc(-c2ccc3ccc(O)cc3c2Cl)c1 [CHEMBL2420684]	–	–	27	2840	–
COc1ccc2ccc(-c3cncnc3)c(Cl)c2c1 [CHEMBL2420685]	–	–	72	12300	–
Oc1ccc2ccc(-c3cncnc3)c(Cl)c2c1 [CHEMBL2420686]	–	–	22	2430	–
COc1ccc2ccc(-c3cncc4ccccc34)c(Cl)c2c1 [CHEMBL2420687]	–	–	54	362	–
Oc1ccc2ccc(-c3cncc4ccccc34)c(Cl)c2c1 [CHEMBL2420688]	–	–	66	238	–
N#Cc1ccc([C@H]2CCCCc3cncn32)c(F)c1 [CHEMBL3099683]	–	–	–	–	IC50 (CYP11B2; ref Meredith et al.): 0.3 nM; IC50 (CYP11B1; ref Meredith et al.): 1 nM
N#Cc1ccc([C@@]2(C(=O)OCc3ccc(F)cc3)CCc3cncn32)c(Cl)c1 [CHEMBL3099689]	–	–	–	–	IC50 (CYP11B2; ref Meredith et al.): 3.8 nM; IC50 (CYP11B1; ref Meredith et al.): 0.1 nM
Cc1cc(C#N)ccc1[C@H]1CCc2cncn21 [CHEMBL3099696]	–	–	–	–	IC50 (CYP11B2; ref Meredith et al.): 1.5 nM; IC50 (CYP11B1; ref Meredith et al.): 0.9 nM
N#Cc1ccc([C@H]2CCCCc3cncn32)c(-c2ccc(F)cc2)c1 [CHEMBL3099704]	–	–	–	–	IC50 (CYP11B2; ref Meredith et al.): 0.3 nM; IC50 (CYP11B1; ref Meredith et al.): 0.4 nM
